Measurements: patent US20140005163A1 (NOVARTIS AG, priority 2010, published 2014)

Legend:
mTOR = biological target: T1, mTOR (Homo sapiens, UniProt P42345); test: Biochemical assay for m-TOR by TR-FRET; settings: 8 μM ATP, 400 nM GFP-4EBP1, 0.5 nM mTOR
T1 construct: purchased Invitrogen Corporation (Carlsbad/CA, USA) PV4753
Outline: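 mTOR (0.5 nM) was incubated at rt with ATP (8 μM final) and GFP-4EBP1 (400 nM final) in 50 mM HEPES pH 7.5, 10 mM MnCl2, 50 mM NaCl, 1 mM EGTA, 1 mM DTT. EDTA stop with Tb3+-anti-p4EBP1 [pThr46] antibody (0.5 nM); TR-FRET read 15 min later.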

PI3K delta = biological target: T2, PI3K delta (Homo sapiens, UniProt O00329); test: PI3K delta kinase assay (Kinase-Glo luminescence); assay type: biochemical
T2 construct: for the full-length p110-d subunit are generated and fused by overlapping PCR; p85(iSH2) fusion partner (see partner chain) (N); His tag (C); made in house; host or cells: baculovirus; Tn5 (Trichoplusia ni) or TiniPro insect cells
Outline: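 ATP depletion was measured by Kinase-Glo luminescence after a 60-minute room-temperature reaction containing 1 μM ATP, 10 μg/mL PI and 10 nM His-tagged p85(iSH2)-linker-p110δ (BV-1060). Buffer: Tris pH 7.5, 3 mM MgCl2, 50 mM NaCl, 0.05% CHAPS, 1 mM DTT. IC50 values came from four-parameter fits over eight concentrations.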

[1] = test system: PKB Ser473 phosphorylation in Rat1-myr-HA-p110 alpha cells; test: Reverse protein array assay, PKB Ser473 phosphorylation in Rat1-myr-p110 alpha cells; assay type: cell-based; settings: 0.5 h, pAkt Ser473, 30 minutes compound incubation, read-out: p-PKB IC50
Outline: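 Lysates were arrayed at four dilutions, and phospho-PKB Ser473 was quantified by relative fluorescence signal. They came from Rat1-myr-HA-p110 alpha, beta or delta cells exposed for 30 min at 37 °C to an 8-point compound series with 0.2% DMSO constant.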

T1 sequence (P42345 1360-2549 limits assumed): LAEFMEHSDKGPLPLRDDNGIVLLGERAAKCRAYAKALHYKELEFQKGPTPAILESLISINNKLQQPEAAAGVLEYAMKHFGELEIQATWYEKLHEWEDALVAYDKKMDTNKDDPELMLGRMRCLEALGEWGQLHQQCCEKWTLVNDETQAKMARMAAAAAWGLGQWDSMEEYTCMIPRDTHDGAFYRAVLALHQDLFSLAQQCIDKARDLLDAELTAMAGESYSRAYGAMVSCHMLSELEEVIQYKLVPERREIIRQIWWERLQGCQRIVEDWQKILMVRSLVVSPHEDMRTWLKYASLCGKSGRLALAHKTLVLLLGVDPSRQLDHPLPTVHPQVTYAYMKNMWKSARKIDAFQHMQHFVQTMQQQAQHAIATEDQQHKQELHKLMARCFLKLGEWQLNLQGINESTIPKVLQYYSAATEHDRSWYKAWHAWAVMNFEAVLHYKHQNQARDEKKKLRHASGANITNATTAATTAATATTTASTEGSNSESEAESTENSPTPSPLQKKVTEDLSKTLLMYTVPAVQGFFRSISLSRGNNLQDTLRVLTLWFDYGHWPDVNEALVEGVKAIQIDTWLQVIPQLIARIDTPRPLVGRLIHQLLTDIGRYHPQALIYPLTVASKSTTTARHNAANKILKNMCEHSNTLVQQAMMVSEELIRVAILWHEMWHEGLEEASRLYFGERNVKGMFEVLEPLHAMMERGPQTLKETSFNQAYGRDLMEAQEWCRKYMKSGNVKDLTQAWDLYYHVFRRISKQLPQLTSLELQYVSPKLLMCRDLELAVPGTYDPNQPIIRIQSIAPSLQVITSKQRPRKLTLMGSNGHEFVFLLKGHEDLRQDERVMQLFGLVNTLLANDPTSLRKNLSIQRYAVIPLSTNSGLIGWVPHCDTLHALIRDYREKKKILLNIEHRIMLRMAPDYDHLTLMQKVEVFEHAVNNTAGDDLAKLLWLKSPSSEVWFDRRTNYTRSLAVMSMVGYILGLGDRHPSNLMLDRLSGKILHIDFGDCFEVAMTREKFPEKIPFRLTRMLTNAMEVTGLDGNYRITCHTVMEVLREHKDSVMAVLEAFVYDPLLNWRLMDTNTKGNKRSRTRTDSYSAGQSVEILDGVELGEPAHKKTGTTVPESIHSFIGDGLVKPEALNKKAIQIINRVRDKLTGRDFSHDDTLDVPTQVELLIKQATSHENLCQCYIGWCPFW
T2 sequence (O00329 with tags, fused parts or gaps limits assumed): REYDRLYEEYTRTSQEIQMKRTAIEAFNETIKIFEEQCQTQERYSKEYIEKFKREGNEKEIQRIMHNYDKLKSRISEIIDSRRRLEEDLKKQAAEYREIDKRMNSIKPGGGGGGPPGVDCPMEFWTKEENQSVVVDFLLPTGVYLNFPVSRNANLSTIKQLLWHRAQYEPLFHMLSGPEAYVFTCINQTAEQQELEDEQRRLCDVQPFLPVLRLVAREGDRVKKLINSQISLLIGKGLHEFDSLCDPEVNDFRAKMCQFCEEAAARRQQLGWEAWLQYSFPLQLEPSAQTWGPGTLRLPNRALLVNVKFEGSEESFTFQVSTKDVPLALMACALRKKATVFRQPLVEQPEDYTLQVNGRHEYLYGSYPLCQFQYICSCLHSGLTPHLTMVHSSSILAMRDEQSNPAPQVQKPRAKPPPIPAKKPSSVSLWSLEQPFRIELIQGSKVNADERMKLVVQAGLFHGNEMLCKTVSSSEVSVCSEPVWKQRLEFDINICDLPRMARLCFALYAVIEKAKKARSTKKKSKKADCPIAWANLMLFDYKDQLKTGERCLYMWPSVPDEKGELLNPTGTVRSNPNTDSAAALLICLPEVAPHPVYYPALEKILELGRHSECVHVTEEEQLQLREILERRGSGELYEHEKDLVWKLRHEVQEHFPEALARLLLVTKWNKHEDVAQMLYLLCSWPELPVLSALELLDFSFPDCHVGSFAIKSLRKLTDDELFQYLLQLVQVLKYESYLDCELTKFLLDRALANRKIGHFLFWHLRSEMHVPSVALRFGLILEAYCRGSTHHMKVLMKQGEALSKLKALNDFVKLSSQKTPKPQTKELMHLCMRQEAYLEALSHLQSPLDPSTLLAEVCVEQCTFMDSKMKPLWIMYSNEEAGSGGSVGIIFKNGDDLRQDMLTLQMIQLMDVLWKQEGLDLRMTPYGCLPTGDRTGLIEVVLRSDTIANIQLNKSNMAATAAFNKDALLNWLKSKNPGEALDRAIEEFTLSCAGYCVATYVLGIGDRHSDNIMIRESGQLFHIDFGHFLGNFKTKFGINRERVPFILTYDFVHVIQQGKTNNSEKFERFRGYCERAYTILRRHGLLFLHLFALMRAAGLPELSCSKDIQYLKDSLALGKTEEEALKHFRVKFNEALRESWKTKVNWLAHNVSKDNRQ

Row | SMILES | IC50 (mTOR) [nM] | IC50 (PI3K delta) [nM] | IC50 [1] [nM]
1 | Cc1nn(C)cc1-n1c(=O)n(C)c2cnc3ccc(-c4cncc(N(C)C5CCC5)c4)cc3c21 [Example 174, 8-[5-(Cyclobutyl-methyl-amino)-pyridin-3-yl]-1-(1,3-dimethyl-1H-pyrazol-4-yl)-3-methyl-1,3-dihydro-imidazo[4,5-c]quinolin-2-one] | 7 | 23 | 9
2 | [2H]C([2H])([2H])OCc1ncc(-c2ccc3ncc4c(c3c2)n(-c2cn(C)nc2C)c(=O)n4C)cc1OCC [Example 198, 1-(1,3-Dimethyl-1H-pyrazol-4-yl)-8-(5-ethoxy-6-trideuteromethoxymethyl-pyridin-3-yl)-3-methyl-1,3-dihydro-imidazo[4,5-c]quinolin-2-one] | 73 | 7 | 28
3 | CCNC(=O)c1cc(-c2ccc3ncc4c(c3c2)n(-c2cn(C(C)C)nc2C)c(=O)n4C)cnc1N [Example 227, 2-Amino-N-ethyl-5-[1-(1-isopropyl-3-methyl-1H-pyrazol-4-yl)-3-methyl-2-oxo-2,3-dihydro-1H-imidazo[4,5-c]quinolin-8-yl]-nicotinamide] | 161 | 26 | 136
4 | CNc1ccc(-c2ccc3ncc4c(c3c2)n(-c2cn(C(C)C)nc2C)c(=S)n4C)cn1 [Example 241, 1-(1-isopropyl-3-methyl-1H-pyrazol-4-yl)-3-methyl-8-(6-(methylamino)pyridin-3-yl)-1H-imidazo[4,5-c]quinoline-2(3H)-thione] | 79 | 147 | < 5
5 | CCn1cc(-n2c(=O)n(C)c3cnc4ccc(-c5ccc(OC)c(OC)c5)nc4c32)c(C)n1 [Example 254, 8-(3,4-Dimethoxy-phenyl)-1-(1-ethyl-3-methyl-1H-pyrazol-4-yl)-3-methyl-1,3-dihydro-1,3,5,9-tetraaza-cyclopenta[a]naphthalen-2-one] | 65 | 26 | 30

Other lines, results leading:

Row | IC50 (mTOR) [nM] | IC50 (PI3K delta) [nM] | IC50 [1] [nM] | SMILES
6 | 19 | 6 | 38 | Cc1cc(-n2c(=O)n(C)c3cnc4ccc(-c5cnc(C)c(O)c5)cc4c32)n(C)n1 [Example 185.2, 1-(2,5-Dimethyl-2H-pyrazol-3-yl)-8-(5-hydroxy-6-methyl-pyridin-3-yl)-3-methyl-1,3-dihydro-imidazo[4,5-c]quinolin-2-one]
7 | 32 | 7 | 19 | CCn1cc(-n2c(=O)n(C)c3cnc4ccc(-c5cncc(C(C)(C)C#N)c5)cc4c32)c(C)n1 [Example 220.2, 2-{5-[1-(1-Ethyl-3-methyl-1H-pyrazol-4-yl)-3-methyl-2-oxo-2,3-dihydro-1H-imidazo[4,5-c]quinolin-8-yl]-pyridin-3-yl}-2-methyl-propionitrile]
8 | 187 | 19 | 17 | COc1ncc(-c2ccc3ncc4c(c3c2)n(-c2cc(C)nn2C)c(=O)n4C)c(OC)n1 [Example 234.4, 8-(2,4-Dimethoxy-pyrimidin-5-yl)-1-(2,5-dimethyl-2H-pyrazol-3-yl)-3-methyl-1,3-dihydro-imidazo[4,5-c]quinolin-2-one]
